# Experimental data taken from patent US6514971B1, “Cinnoline derivatives and use as medicine” (Zeneca Limited, priority 1996, dated 2003).
# Structures can show the parent of a compound that is named as a salt.
row,melting point,SMILES
1,215 to 221 °C,COc1cc2c(Nc3cc(O)c(C)cc3F)cnnc2cc1OCc1nccn1C.Cl
2,244 to 252 °C,COc1cc2c(Nc3cc(O)c(C)cc3F)cnnc2cc1OCc1ccncc1.Cl
3,278 to 281 °C,"COCCOc1cc2nncc(Nc3ccc(Br)cc3F)c2cc1OC (as salt: hydrochloride) [Example 5, 4-(4-bromo-2-fluoroanilino)-6-methoxy-7-(2-methoxyethoxy)cinnoline]"
4,280 to 284 °C,"COc1cc2c(Nc3cc(O)c(Cl)cc3F)cnnc2cc1OCc1ccccc1 (as salt: hydrochloride) [Example 6, 7-benzyloxy-4-(4-chloro-2-fluoro-5-hydroxyanilino)-6-methoxycinnoline]"
5,243 to 251 °C,"COc1cc2c(Nc3cc(O)c(Cl)cc3F)cnnc2cc1OCc1ccncc1 (as salt: hydrochloride) [Example 10, 4-(4-chloro-2-fluoro-5-hydroxyanilino)-6-methoxy-7-(4-pyridylmethoxy)cinnoline]"
6,283 to 290 °C,"COCCOc1cc2nncc(Nc3cc(O)c(C)cc3F)c2cc1OC (as salt: hydrochloride) [Example 11, 4-(2-fluoro-5-hydroxy-4-methylanilino)-6-methoxy-7-(2-methoxyethoxy)cinnoline]"
7,218 to 225 °C,"COc1cc2c(Nc3cc(O)c(Cl)cc3F)cnnc2cc1OCCCN1CCOCC1 (as salt: hydrochloride) [Example 12, 4-(4-chloro-2-fluoro-5-hydroxyanilino)-6-methoxy-7-(3-morpholinopropoxy)cinnoline]"
8,240 to 245 °C,"COc1cc2c(Nc3cc(O)c(Cl)cc3F)cnnc2cc1OCCCN1CCCC1 (as salt: hydrochloride) [Example 13, 4-(4-chloro-2-fluoro-5-hydroxyanilino)-6-methoxy-7-(3-pyrrolidinopropoxy)cinnoline]"
9,270 to 275 °C,"COc1ccc2c(Nc3ccc(C)c(O)c3)cnnc2c1 (as salt: hydrochloride) [Example 14, 4-(3-hydroxy-4-methylanilino)-7-methoxycinnoline]"
10,251 to 253 °C,"COc1cc2nncc(Nc3cc(O)c(C)cc3F)c2cc1OC (as salt: hydrochloride) [Example 21, 4-(2-fluoro-5-hydroxy-4-methylanilino)-6,7-dimethoxycinnoline]"
11,255 to 256 °C,"COc1cc2nncc(Nc3cc(O)c(Cl)cc3F)c2cc1OC (as salt: hydrochloride) [Example 22, 4-(4-chloro-2-fluoro-5-hydroxyanilino)-6,7-dimethoxycinnoline]"
12,250 to 256 °C,"COCCOCCOc1cc2nncc(Nc3cc(O)c(C)cc3F)c2cc1OC (as salt: hydrochloride) [Example 23, 4-(2-fluoro-5-hydroxy-4-methylanilino)-6-methoxy-7-[2-(2-methoxyethoxy)ethoxy]cinnoline]"
13,240 to 244 °C,"COc1cc2nncc(Nc3ccc(C)c(O)c3)c2cc1OC [Example 1, 4-(3-hydroxy-4-methylanilino)-6,7-dimethoxycinnoline]"
14,267 to 273 °C,"COCCOc1cc2nncc(Oc3cc(O)c(C)cc3F)c2cc1OC [Example 20, 4-(2-fluoro-5-hydroxy-4-methylphenoxy)-6-methoxy-7-(2-methoxyethoxy)cinnoline]"

row,SMILES,melting point
1,"COc1cc2c(Nc3cc(OC(C)=O)c(Cl)cc3F)cnnc2cc1OCc1ccccc1 (as salt: hydrochloride) [Example 7, 4-(5-acetoxy-4-chloro-2-fluoroanilino)-7-benzyloxy-6-methoxycinnoline]",240 to 247 °C
